Results published in patent publication US8415342B2, “Besifloxacin ophthalmic composition for the treatment or control of infection” (Bausch & Lomb Incorporated, priority 2008, dated 2013).
Converted amounts (≈) assume the structure as drawn. Read-outs that look alike come from different tables or passages of the source.

Columns and labels:
Format in all cases: cell-based
Streptococcus pneumoniae = assay: MIC, CLSI broth microdilution, clinical isolates; details: Streptococcus pneumoniae (all phenotypes, N = 35)
Streptococcus pyogenes = assay: MIC, CLSI broth microdilution, clinical isolates; details: Streptococcus pyogenes (N = 101)
[1] = tested on: Lancefield group C, F, G streptococci; assay: MIC, CLSI broth microdilution, clinical isolates; details: G streptococci (N = 50)
Viridans streptococci = assay: MIC, CLSI broth microdilution, clinical isolates; details: Viridans streptococci (N = 156)
Citrobacter koseri = assay: MIC, CLSI broth microdilution, clinical isolates; details: Citrobacter koseri (N = 100)
Klebsiella oxytoca = assay: MIC, CLSI broth microdilution, clinical isolates; details: Klebsiella oxytoca (N = 50)
Haemophilus influenzae = assay: MIC, CLSI broth microdilution, clinical isolates; details: for MIC50 / MIC90: Haemophilus influenzae
Legionella pneumophila = assay: microbe, parasite or virus in culture
Moraxella catarrhalis = assay: MIC, CLSI broth microdilution, clinical isolates; details: Moraxella catarrhalis (N = 101)
Morganella morganii = assay: MIC, CLSI broth microdilution, clinical isolates; details: Morganella morganii (N = 51)
Anaerobic Bacteria = assay: MIC against anaerobic bacteria (Table 7)
S. aureus = assay: MIC of clinical trial isolates, Studies 373, 433, 434; details: Staphylococcus aureus
S. epidermidis = assay: as above; details: Staphylococcus epidermidis
[2] = Haemophilus influenzae (all phenotypes, N = 40)
[3] = Haemophilus influenzae (bla negative, N = 24)
[4] = Haemophilus influenzae (bla positive, N = 16)
[5] = Clostridium perfringens, Clostridium perfringens (N = 21)

N[C@@H]1CCCCN(c2c(F)cc3c(=O)c(C(=O)O)cn(C4CC4)c3c2Cl)C1 [Besifloxacin, (R)-(+)-(3-amino-2,3,4,5,6,7-hexahydro-1H-azepin-1-yl)-8-chloro-1-cyclopropyl-6-fluoro-1,4,-dihydro-4-oxo-3-quinolinecarboxylic acid]
MIC50 (Streptococcus pneumoniae; read-out: MIC50): 0.06 µg/mL (≈ 0.152 µM) | MIC90 (Streptococcus pneumoniae; read-out: MIC90): 0.06 µg/mL (≈ 0.152 µM) | MIC Range (Streptococcus pyogenes): 0.03 to 0.06 µg/mL | MIC50 (Streptococcus pyogenes; read-out: MIC50): 0.03 µg/mL (≈ 0.0762 µM) | MIC90 (Streptococcus pyogenes; read-out: MIC90): 0.06 µg/mL (≈ 0.152 µM) | MIC Range [1]: 0.015 to 0.25 µg/mL | MIC50 ([1]; read-out: MIC50): 0.03 µg/mL (≈ 0.0762 µM) | MIC90 ([1]; read-out: MIC90): 0.06 µg/mL (≈ 0.152 µM) | MIC Range (Viridans streptococci): 0.015 to 2 µg/mL | MIC50 (Viridans streptococci; read-out: MIC50): 0.06 µg/mL (≈ 0.152 µM) | MIC90 (Viridans streptococci; read-out: MIC90): 0.12 µg/mL (≈ 0.305 µM) | MIC50 (Citrobacter koseri): 0.06 µg/mL (≈ 0.152 µM) | MIC90 (Citrobacter koseri): 0.25 µg/mL (≈ 0.635 µM) | MIC50 (Klebsiella oxytoca): 0.12 µg/mL (≈ 0.305 µM) | MIC90 (Klebsiella oxytoca): 1 µg/mL (≈ 2.54 µM) | MIC Range (Klebsiella oxytoca): 0.06 to 8 µg/mL | MIC Range (Haemophilus influenzae; [2]): ≦0.004-0.03 μg/mL | MIC Range (Haemophilus influenzae; [3]): ≦0.004-0.03 μg/mL | MIC Range (Haemophilus influenzae; [4]): 0.008 to 0.03 µg/mL | MIC50 (Haemophilus influenzae; [2]): 0.015 µg/mL (≈ 0.0381 µM) | MIC90 (Haemophilus influenzae; [2]): 0.015 µg/mL (≈ 0.0381 µM) | MIC50 (Haemophilus influenzae; [3]): 0.015 µg/mL (≈ 0.0381 µM) | MIC90 (Haemophilus influenzae; [3]): 0.015 µg/mL (≈ 0.0381 µM) | MIC50 (Haemophilus influenzae; [4]): 0.015 µg/mL (≈ 0.0381 µM) | MIC90 (Haemophilus influenzae; [4]): 0.03 µg/mL (≈ 0.0762 µM) | MIC50 (Legionella pneumophila; Legionella pneumophila): 0.03 µg/mL (≈ 0.0762 µM) | MIC90 (Legionella pneumophila; Legionella pneumophila): 0.03 µg/mL (≈ 0.0762 µM) | MIC Range (Legionella pneumophila; Legionella pneumophila (N = 50)): 0.015 to 0.06 µg/mL | MIC50 (Moraxella catarrhalis): 0.03 µg/mL (≈ 0.0762 µM) | MIC90 (Moraxella catarrhalis): 0.03 µg/mL (≈ 0.0762 µM) | MIC Range (Moraxella catarrhalis): 0.015 to 0.12 µg/mL | MIC50 (Morganella morganii): 0.12 µg/mL (≈ 0.305 µM) | MIC90 (Morganella morganii): 4 µg/mL (≈ 10.2 µM) | MIC50 (Anaerobic Bacteria; Bacteroides fragilis, Bacteroides fragilis (N = 20), read-out: MIC50): 0.5 µg/mL (≈ 1.27 µM) | MIC90 (Anaerobic Bacteria; Bacteroides fragilis, Bacteroides fragilis (N = 20), read-out: MIC90): 1 µg/mL (≈ 2.54 µM) | MIC Range (Anaerobic Bacteria; Clostridium perfringens (N = 21)): 0.12 to 0.25 µg/mL | MIC50 (Anaerobic Bacteria; [5]): 0.25 µg/mL (≈ 0.635 µM) | MIC90 (Anaerobic Bacteria; [5]): 0.25 µg/mL (≈ 0.635 µM) | MIC50 (Anaerobic Bacteria; Cutibacterium acnes, Propionibacterium acnes (N = 21), read-out: MIC50): 0.25 µg/mL (≈ 0.635 µM) | MIC90 (Anaerobic Bacteria; Cutibacterium acnes, Propionibacterium acnes (N = 21), read-out: MIC90): 0.25 µg/mL (≈ 0.635 µM) | MIC Range (Anaerobic Bacteria; Fusobacterium spp. (N = 21)): 0.12 to 8 µg/mL | MIC50 (Anaerobic Bacteria; Fusobacterium spp. (N = 21), read-out: MIC50): 0.25 µg/mL (≈ 0.635 µM) | MIC Range (Anaerobic Bacteria; Prevotella spp. (N = 20)): 0.06 to 16 µg/mL | MIC50 (Anaerobic Bacteria; Prevotella spp. (N = 20), read-out: MIC50): 1 µg/mL (≈ 2.54 µM) | MIC90 (Anaerobic Bacteria; Prevotella spp. (N = 20), read-out: MIC90): 4 µg/mL (≈ 10.2 µM) | MIC Range (Anaerobic Bacteria; Propionibacterium acnes (N = 21)): 0.12 to 0.25 µg/mL | MIC90 (S. aureus; MRSA, S. aureus MRSA-CR, N 17, read-out: MIC90): 4 µg/mL | MIC90 (S. aureus; MRSA, S. aureus MRSA-CS, N 9, read-out: MIC90 (due to limited isolates, highest MIC value is given)): 0.06 µg/mL | MIC90 (S. aureus; MRSA, Staphylococcus aureus (MRSA-CR), isolates of studies 373, 433, 434, read-out: MIC90): 4 µg/mL | MIC90 (S. aureus; MSSA, S. aureus MSSA-CR, N 17, read-out: MIC90): 2 µg/mL | MIC90 (S. aureus; MSSA, S. aureus MSSA-CS, N 144, read-out: MIC90): 0.06 µg/mL | MIC90 (S. aureus; MSSA, Staphylococcus aureus (MSSA-CR), isolates of studies 373, 433, 434, read-out: MIC90): 2 µg/mL | MIC90 (S. aureus; Staphylococcus aureus (all phenotypes), isolates of studies 373, 433, 434, read-out: MIC90): 0.5 µg/mL | MIC90 (S. epidermidis; MRSE, S. epidermidis MRSE-CR, N 24, read-out: MIC90): 4 µg/mL | MIC90 (S. epidermidis; MRSE, S. epidermidis MRSE-CS, N 27, read-out: MIC90): 0.06 µg/mL | MIC90 (S. epidermidis; S. epidermidis MSSE-CR, N 10, read-out: MIC90): 1 µg/mL | MIC90 (S. epidermidis; S. epidermidis MSSE-CS, N 50, read-out: MIC90): 0.06 µg/mL | MIC90 (S. epidermidis; isolates of studies 373, 433, 434, read-out: MIC90): 0.5 µg/mL
